Like-named read-outs stand apart in the source and are kept apart here.
Experiments:
[1] = tested on: Control CHO; experiment: Calcium-mobilization assay, untransfected Control CHO cells; assay type: cell-based, Chinese hamster
Procedure: (§1) We investigated structure-activity relationships across species, LPAR subtypes and between Rx100 and two known process impurities encountered in manufacture: Rx103 (‘E’ isomer) and Rx200 (oleyl phosphate and impurity, which can be an Rx100 degradant along with oleyl alcohol). Rx100, Rx103, Rx200 and native LPA were investigated at different human LPAR subtypes. In addition, the activity of these compounds was evaluated at LPA2 receptors from the rhesus, rat and mouse species. Human LPA1/2/3 subtypes were transfected into mouse embryonic fibroblasts (MEF) or rat hepatoma cells (RH7777)—both of which are normally non-responsive or null to LPA. Human LPA4 was transfected into Chinese hamster ovary (CHO) cells and LPA5 into the B103 neuroblastoma cell line. […] The B103 rat neuroblastoma cell line is endogenously nonresponsive to LPA but expresses heterologous LPA5 receptors well. […] LPAR activation elicits a G-protein-mediated transient rise in intracellular calcium level that is proportional to the concentration of LPA applied. The intracellular calcium level was quantified by the calcium-selective fluorescent indicator FURA-2 (e.g., increased intracellular calcium surge=increased fluorescence).

[2] = molecular target: LPA2 receptors from the rhesus (Macaca mulatta, UniProt I2CXV3); experiment: Calcium-mobilization assay (FURA-2), rhesus LPA2; assay type: cell-based
Chain of LPA2 receptors from the rhesus (I2CXV3 1-351): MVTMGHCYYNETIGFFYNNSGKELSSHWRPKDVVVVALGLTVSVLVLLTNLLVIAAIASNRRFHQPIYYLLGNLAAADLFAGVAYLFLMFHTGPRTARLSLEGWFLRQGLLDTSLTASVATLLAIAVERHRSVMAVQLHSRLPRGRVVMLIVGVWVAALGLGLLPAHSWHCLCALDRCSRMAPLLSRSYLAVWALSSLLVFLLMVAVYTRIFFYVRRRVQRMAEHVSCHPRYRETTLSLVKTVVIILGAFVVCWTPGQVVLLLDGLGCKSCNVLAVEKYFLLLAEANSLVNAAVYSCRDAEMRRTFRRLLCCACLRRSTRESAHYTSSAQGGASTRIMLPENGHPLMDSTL
Procedure: as §1

[3] = molecular target: T1, Human LPA4 (Homo sapiens, UniProt Q99677); experiment: Calcium-mobilization assay (FURA-2), human LPA4 in CHO cells; assay type: cell-based
T1 construct: expressed in transfected cells; host or cells: CHO
T1 sequence (Q99677 whole entry): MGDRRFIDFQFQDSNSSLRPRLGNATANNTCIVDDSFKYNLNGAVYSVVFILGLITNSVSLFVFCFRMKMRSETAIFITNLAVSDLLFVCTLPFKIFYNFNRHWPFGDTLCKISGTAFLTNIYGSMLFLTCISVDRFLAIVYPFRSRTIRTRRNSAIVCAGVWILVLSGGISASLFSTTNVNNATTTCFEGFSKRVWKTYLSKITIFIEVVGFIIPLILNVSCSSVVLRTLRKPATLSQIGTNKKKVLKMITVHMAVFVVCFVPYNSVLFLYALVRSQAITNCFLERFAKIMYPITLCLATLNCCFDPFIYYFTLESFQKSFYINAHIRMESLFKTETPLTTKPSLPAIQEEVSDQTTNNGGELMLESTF
Procedure: as §1

[4] = molecular target: T2, LPA2 receptors from the mouse (Mus musculus, UniProt Q9JL06); experiment: Calcium-mobilization assay (FURA-2), mouse LPA2; assay type: cell-based
T2 construct: expressed in transfected cells
T2 sequence (Q9JL06 whole entry): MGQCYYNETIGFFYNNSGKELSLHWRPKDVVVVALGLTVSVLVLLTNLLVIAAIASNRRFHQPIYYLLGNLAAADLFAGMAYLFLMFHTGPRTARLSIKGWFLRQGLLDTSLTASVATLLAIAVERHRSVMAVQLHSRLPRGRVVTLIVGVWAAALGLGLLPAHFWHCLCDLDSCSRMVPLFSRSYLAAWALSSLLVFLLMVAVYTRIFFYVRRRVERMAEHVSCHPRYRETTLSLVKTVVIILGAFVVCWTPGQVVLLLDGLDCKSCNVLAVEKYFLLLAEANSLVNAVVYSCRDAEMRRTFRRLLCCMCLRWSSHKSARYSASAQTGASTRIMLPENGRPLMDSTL
Procedure: as §1

[5] = molecular target: T3, Human LPA3 (Homo sapiens, UniProt Q9UBY5); experiment: Calcium-mobilization assay (FURA-2), human LPA3 transfected cells; assay type: cell-based; settings: for EC50 / Emax (% of LPA): mean
T3 construct: expressed in transfected cells; host or cells: mouse embryonic fibroblasts (MEF) or rat hepatoma RH7777
T3 sequence (Q9UBY5 1-353): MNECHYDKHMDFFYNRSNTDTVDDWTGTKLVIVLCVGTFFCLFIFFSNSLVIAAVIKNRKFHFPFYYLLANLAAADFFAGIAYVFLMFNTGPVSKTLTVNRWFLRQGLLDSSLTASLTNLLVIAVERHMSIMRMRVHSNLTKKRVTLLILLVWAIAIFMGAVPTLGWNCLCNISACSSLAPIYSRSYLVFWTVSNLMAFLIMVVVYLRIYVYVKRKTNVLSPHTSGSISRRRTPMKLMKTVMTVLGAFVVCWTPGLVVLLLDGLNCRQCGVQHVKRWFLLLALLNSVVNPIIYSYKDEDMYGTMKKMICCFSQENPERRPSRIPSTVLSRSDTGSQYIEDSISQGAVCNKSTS
Procedure: as §1

[6] = molecular target: T4, Human LPA1 (Homo sapiens, UniProt Q92633); experiment: Calcium-mobilization assay (FURA-2), human LPA1 transfected cells; assay type: cell-based; settings: for EC50 / Emax (% of LPA): mean
T4 construct: expressed in transfected cells; host or cells: mouse embryonic fibroblasts (MEF)
T4 sequence (Q92633 whole entry): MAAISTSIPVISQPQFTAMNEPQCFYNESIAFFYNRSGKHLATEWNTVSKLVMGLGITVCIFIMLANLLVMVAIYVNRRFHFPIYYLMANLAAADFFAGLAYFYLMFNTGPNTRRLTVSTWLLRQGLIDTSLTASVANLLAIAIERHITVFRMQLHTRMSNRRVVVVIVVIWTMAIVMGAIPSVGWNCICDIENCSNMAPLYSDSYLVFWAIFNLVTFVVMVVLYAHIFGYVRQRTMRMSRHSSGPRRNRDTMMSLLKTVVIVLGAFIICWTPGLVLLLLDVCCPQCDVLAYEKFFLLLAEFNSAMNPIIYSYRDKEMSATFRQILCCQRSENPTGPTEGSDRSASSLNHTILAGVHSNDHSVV
Procedure: as §1

[7] = molecular target: T5, LPA5 (Homo sapiens, UniProt Q9H1C0); experiment: Calcium-mobilization assay (FURA-2), LPA5 in B103 neuroblastoma cells; assay type: cell-based
T5 construct: expressed in transfected cells; host or cells: B103 rat neuroblastoma
T5 sequence (Q9H1C0 whole entry): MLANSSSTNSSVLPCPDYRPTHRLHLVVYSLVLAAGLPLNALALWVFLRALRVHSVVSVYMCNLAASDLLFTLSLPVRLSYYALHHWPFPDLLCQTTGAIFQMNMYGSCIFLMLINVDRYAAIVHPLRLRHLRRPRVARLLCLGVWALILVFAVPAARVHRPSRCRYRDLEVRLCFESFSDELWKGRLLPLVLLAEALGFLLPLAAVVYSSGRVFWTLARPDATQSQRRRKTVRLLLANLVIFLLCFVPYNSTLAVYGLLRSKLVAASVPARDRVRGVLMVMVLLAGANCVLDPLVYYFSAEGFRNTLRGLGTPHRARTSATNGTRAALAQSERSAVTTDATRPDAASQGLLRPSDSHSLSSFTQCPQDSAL
Procedure: as §1

[8] = molecular target: Human LPA2 (Homo sapiens, UniProt Q9HBW0); experiment: Calcium-mobilization assay (FURA-2), human LPA2 transfected cells; assay type: cell-based; set-up: expressed in transfected cells; host or cells: mouse embryonic fibroblasts (MEF) or rat hepatoma RH7777
Chain of Human LPA2 (Q9HBW0 whole entry): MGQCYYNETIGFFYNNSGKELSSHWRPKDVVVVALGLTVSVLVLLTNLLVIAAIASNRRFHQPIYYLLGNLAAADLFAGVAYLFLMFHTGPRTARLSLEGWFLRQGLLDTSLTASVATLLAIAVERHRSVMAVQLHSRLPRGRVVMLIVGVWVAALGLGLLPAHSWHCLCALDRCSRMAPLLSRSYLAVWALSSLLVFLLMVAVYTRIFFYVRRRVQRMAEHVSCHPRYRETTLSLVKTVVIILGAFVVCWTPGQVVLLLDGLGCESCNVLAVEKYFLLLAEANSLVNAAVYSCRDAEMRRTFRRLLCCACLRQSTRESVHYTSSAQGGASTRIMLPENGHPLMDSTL
Procedure: as §1

[9] = tested on: lysophosphatidic acid receptor (LPAR); experiment: Calcium-mobilization assay, overall statements for all species and LPAR subtypes tested; assay type: cell-based
Excerpt: The compound was medicinally designed as an LPA analog with the goal of decreasing the otherwise rapid metabolism of LPA itself. […] These receptors are ubiquitous by tissue and in those eukaryotes investigated. […] Thus, the mechanism of drug action for GI-ARS protection is activation of the transmembrane G protein-coupled lysophosphatidic acid receptor (LPAR) and, more specifically, the LPAR2 GPCR subtype. The primary pharmacodynamics is that LPAR2 activation leads to a cascade of intracellular events that switch cells from an apoptotic to a repair/regenerative pathway.
as §1
Oleyl alcohol is, of course, a common component of many non-toxic ingested or dermally applied substances.

[10] = molecular target: LPA2 receptors from the rat (Rattus norvegicus, UniProt A0ABK0LT65); experiment: Calcium-mobilization assay (FURA-2), rat LPA2; assay type: cell-based
Chain of LPA2 receptors from the rat (A0ABK0LT65 1-348): as the sequence (Q9JL06 whole entry) above, with A153V, A189V, Y211F, M310T, S316H, R321H, A324S, Q327R, R341H counted along it
Procedure: as §1

[11] = RH7777, read-out: Emax (% of LPA)

## CCCCCCCC/C=C/CCCCCCCCOP(O)(O)=S [Rx103]
[1]; Cricetulus griseus, CHO
  EC50: > 5000 nM
[1]; Cricetulus griseus, CHO, read-out: Emax (% of LPA)
  Emax: 12%
[2]
  EC50: 133 nM
[2]; read-out: Emax (% of LPA)
  Emax: 90%
[3]
  EC50: > 5000 nM
[3]; CHO, read-out: Emax (% of LPA)
  Emax: 88%
[4]
  EC50: 355 nM
[4]; read-out: Emax (% of LPA)
  Emax: 100%
[5]; EC50 [nM], LPA3 DKO MEF, human
  EC50: 61 nM
[5]; EC50 [nM], LPA3 RH7777, human
  EC50: 74 nM
[5]; [11]
  Emax: 77%
[5]; read-out: Emax (% of LPA)
  Emax: 100%
[6]; EC50 [nM], LPA1 DKO MEF, human
  EC50: 367 nM
[6]; EC50 [nM], LPA1 RH7777, human
  EC50: 1710 nM
[6]; [11]
  Emax: 75%
[6]; read-out: Emax (% of LPA)
  Emax: 90%
[7]
  EC50: 83 nM
[7]; B103, read-out: Emax (% of LPA)
  Emax: 103%
[8]
  EC50: 241 nM
[8]; read-out: Emax (% of LPA)
  Emax: 70%
[9]
  LPAR activation: has activity but has a uniformly reduced EC50 and Emax
[10]
  EC50: 133 nM
[10]; read-out: Emax (% of LPA)
  Emax: 87.6%

## CCCCCCCC/C=C\CCCCCCCCOP(=O)(O)O [Rx200, oleyl phosphate]
[1]; Control CHO (untransfected; endogenously expresses LPA1)
  Emax (% of LPA): 12%
[1]; Control CHO (untransfected; endogenously expresses LPA1), read-out: EC50
  EC50: 965 nM
[2]; LPA2 DKO MEF, rhesus, mean
  EC50 [nM]: No
  Emax (% of LPA): No
[3]; LPA4 CHO, human, mean
  Emax (% of LPA): 70 % of LPA
[3]; LPA4 CHO, human, mean, read-out: EC50
  EC50: 737 nM
[4]; LPA2 DKO MEF, mouse, mean
  EC50 [nM]: No
  Emax (% of LPA): No
[5]; LPA3 DKO MEF, human
  Emax (% of LPA): 34 % of LPA
[5]; LPA3 DKO MEF, human, read-out: EC50
  EC50: > 5000 nM
[5]; LPA3 RH7777, human
  Emax (% of LPA): 61 % of LPA
[5]; LPA3 RH7777, human, read-out: EC50
  EC50: 747 nM
[6]; LPA1 DKO MEF, human
  Emax (% of LPA): 53 % of LPA
[6]; LPA1 DKO MEF, human, read-out: EC50
  EC50: 1360 nM
[6]; LPA1 RH7777, human
  Emax (% of LPA): 83 % of LPA
[6]; LPA1 RH7777, human, read-out: EC50
  EC50: 328 nM
[7]; LPA5 B103, human, mean
  Emax (% of LPA): 100 % of LPA
[7]; LPA5 B103, human, mean, read-out: EC50
  EC50: 167 nM
[8]; LPA2 DKO MEF, human, mean
  EC50 [nM]: No
  Emax (% of LPA): No
[9]
  LPAR activation: virtually inactive
[10]; LPA2 DKO MEF, rat, mean
  EC50 [nM]: No
  Emax (% of LPA): No
